Measurements taken from ChEMBL document CHEMBL5620344, “Discovery of novel 5-(2-hydroxyphenyl)-2-phthalide-3(3H)-pyrazolones as balanced multifunctional agents against Alzheimer's disease” (Eur J Med Chem, 2023).
Activity calls are given as the source filed them. The calls are words filed in the database; no cut-off is given here.

Key:
[1] = target: T1, Amine oxidase [flavin-containing] A (Homo sapiens, UniProt P21397); test: Inhibition of human recombinant MAO-A
T1 sequence (P21397 whole entry): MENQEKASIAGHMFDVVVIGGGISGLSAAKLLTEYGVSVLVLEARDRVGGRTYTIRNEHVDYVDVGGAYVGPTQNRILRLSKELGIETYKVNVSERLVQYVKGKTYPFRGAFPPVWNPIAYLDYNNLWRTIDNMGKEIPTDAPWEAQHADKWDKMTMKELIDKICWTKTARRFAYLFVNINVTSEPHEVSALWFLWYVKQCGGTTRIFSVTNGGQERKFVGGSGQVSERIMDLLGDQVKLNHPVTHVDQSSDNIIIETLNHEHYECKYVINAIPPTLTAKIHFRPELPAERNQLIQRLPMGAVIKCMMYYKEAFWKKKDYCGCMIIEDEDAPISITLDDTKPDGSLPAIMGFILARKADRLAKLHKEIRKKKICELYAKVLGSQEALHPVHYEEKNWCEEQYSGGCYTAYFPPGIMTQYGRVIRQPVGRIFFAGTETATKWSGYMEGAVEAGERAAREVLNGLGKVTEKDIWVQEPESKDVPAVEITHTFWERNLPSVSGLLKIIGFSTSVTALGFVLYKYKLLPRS

[2] = target: T2, Amine oxidase [flavin-containing] B (Homo sapiens, UniProt P27338); test: Inhibition of human recombinant MAO-B
T2 sequence (P27338 whole entry): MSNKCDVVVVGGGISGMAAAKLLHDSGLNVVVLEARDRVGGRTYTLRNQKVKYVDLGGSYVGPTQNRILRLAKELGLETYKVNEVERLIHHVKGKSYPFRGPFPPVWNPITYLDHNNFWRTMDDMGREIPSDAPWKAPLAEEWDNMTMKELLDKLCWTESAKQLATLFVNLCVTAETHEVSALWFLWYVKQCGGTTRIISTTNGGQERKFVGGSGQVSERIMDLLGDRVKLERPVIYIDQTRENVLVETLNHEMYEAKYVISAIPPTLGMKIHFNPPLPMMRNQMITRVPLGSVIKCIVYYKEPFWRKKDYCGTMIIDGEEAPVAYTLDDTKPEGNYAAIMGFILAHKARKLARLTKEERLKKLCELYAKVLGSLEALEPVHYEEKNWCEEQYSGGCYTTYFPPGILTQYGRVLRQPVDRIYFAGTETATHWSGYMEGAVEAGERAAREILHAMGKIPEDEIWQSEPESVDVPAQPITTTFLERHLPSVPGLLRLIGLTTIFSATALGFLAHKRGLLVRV

[3] = Antioxidant activity assessed as trolox equivalent of ORAC radical scavenging activity by ORAC-FL assay relative to trolox; format: functional
[4] = Metal chelating activity assessed as compound-Fe3+ complex formation by measuring blue shift of maximum absorption peak at 37.5 uM in presence of FeCl3 by UV-Vis spectrometry
[5] = Metal chelating activity assessed as compound-Fe2+ complex formation by measuring increase in absorbance at 37.5 uM in presence of FeSO4 by UV-vis spectrometry
[6] = Antioxidant activity assessed as inhibition of Cu2+-induced ROS production by measuring decrease in fluorescence intensity in presence of Cu2+ and ascorbate by CCA-dye based fluorescence analysis; format: functional
[7] = target: Amyloid-beta precursor protein (Homo sapiens) (UniProt P05067); test: Inhibition of self-induced amyloid beta (1 to 42) (unknown origin) aggregation assessed as decrease in number of aggregates formed incubated for 24 hrs by transmission electron microscopy
Chain of Amyloid-beta precursor protein (Homo sapiens) (P05067 whole entry): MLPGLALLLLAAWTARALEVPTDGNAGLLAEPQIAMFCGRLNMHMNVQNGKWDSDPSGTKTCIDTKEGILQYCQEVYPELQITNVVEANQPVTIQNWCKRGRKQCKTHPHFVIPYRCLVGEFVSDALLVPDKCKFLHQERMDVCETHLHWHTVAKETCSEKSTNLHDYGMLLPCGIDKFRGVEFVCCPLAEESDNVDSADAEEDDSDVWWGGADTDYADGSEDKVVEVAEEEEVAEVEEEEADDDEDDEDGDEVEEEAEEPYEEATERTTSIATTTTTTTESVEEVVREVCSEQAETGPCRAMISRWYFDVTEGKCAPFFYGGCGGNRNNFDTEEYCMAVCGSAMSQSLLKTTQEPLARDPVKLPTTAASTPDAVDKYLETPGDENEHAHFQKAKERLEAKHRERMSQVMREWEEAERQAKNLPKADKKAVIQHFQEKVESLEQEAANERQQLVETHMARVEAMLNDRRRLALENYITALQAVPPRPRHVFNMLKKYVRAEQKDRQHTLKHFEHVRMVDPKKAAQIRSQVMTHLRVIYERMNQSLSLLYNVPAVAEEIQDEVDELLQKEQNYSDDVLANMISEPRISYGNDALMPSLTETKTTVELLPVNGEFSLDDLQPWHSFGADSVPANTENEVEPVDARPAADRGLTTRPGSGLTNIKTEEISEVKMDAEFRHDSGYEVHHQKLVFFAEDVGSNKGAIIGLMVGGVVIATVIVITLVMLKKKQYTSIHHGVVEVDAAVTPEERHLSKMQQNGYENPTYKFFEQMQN

[8] = target: Amyloid-beta precursor protein (Homo sapiens) (UniProt P05067); test: Disaggregation of self-induced amyloid beta (1 to 42) (unknown origin) preformed fibrils assessed as reduction in long fibrils formed incubated for 24 hrs by transmission electron microscopy
[9] = target: Amyloid-beta precursor protein (Homo sapiens) (UniProt P05067); test: Disaggregation of Cu2+-induced amyloid beta (1 to 42) (unknown origin) preformed fibrils at 25 uM by ThT fluorescence assay
[10] = target: Amyloid-beta precursor protein (Homo sapiens) (UniProt P05067); test: Inhibition of Cu2+-induced amyloid beta (1 to 42) (unknown origin) aggregation assessed as fewer amyloid beta (1 to 42) fibrils formation incubated for 24 hrs by transmission electron microscopy
[11] = target: Amyloid-beta precursor protein (Homo sapiens) (UniProt P05067); test: Disaggregation of Cu2+-induced amyloid beta (1 to 42) (unknown origin) preformed fibrils assessed as degradation of crude fibrils incubated for 24 hrs by transmission electron microcopy
[12] = target: Amyloid-beta precursor protein (Homo sapiens) (UniProt P05067); test: Disaggregation of Cu2+-induced amyloid beta (1 to 42) (unknown origin) preformed fibrils assessed as decrease in size of aggregates incubated for 24 hrs by transmission electron microcopy
[13] = system: PC-12; test: Cytotoxicity against rat PC12 cells assessed as effect on cell viability at 2.5 to 25 uM by MTT assay; format: toxicity, cell-based; details: pc-12, 25 µM, dose 2.5-25 µM
[14] = system: PC-12; test: Neuroprotective activity against H2O2-induced cytotoxicity in rat PC12 cells assessed as cell viability at 2.5 uM by MTT assay (reference value: 54.9%); format: functional; details: read-out: Activity
[15] = system: PC-12; test: Neuroprotective activity against H2O2-induced cytotoxicity in rat PC12 cells assessed as cell viability at 10 uM by MTT assay (reference value: 54.9%); format: functional; details: read-out: Activity
[16] = system: BV-2; test: Antioxidant activity against LPS-stimulated mouse BV-2 cells assessed as inhibition of ROS generation by measuring decrease in fluorescence intensity at 2.5 to 10 uM by DCFH-DA staining based fluorescence microscopy; format: functional, cell-based; details: dose 2.5-10 µM
[17] = system: BV-2; test: Anti-neuroinflammatory activity against LPS-stimulated mouse BV-2 cells assessed as inhibition of NO release at 2.5 uM incubated for 24 hrs by Griess reagent based assay; format: functional
[18] = system: BV-2; test: Anti-neuroinflammatory activity against LPS-stimulated mouse BV-2 cells assessed as inhibition of TNF-alpha release at 10 uM by ELISA; format: functional
[19] = Half life in BALB/c mouse plasma at 30 mg/kg, ig; format: ADME, organism-based; details: po
[20] = Cmax in BALB/c mouse plasma at 30 mg/kg, ig; format: ADME, organism-based; details: po
[21] = Half life in BALB/c mouse brain at 30 mg/kg, ig; format: ADME, organism-based; details: po
[22] = Tmax in BALB/c mouse brain at 30 mg/kg, ig; format: ADME, organism-based; details: po
[23] = Cmax in BALB/c mouse brain at 30 mg/kg, ig; format: ADME, organism-based; details: po
[24] = Ratio of AUC in brain to plasma in BALB/c at 30 mg/kg, ig; format: ADME, organism-based; details: mouse, po
[25] = system: Mus musculus; test: Antialzheimer activity against amyloid beta (1-42)-induced alzheimer's disease mouse model assessed as decrease in cognitive impairment by measuring increase in number of crossing the target area in spatial probe trial at 8 to 32 mg/kg and measured on day 6 by Morris water maze test; format: functional, organism-based; details: dose 8-32 mg/kg, time 6.0 day
[26] = system: Mus musculus; test: Anti-oxidative stress against amyloid beta (1-42)-induced alzheimer's disease mouse model assessed as decrease in MDA content in hippocampus at 8 to 32 mg/kg and measured on day 6; format: functional, organism-based; details: dose 8-32 mg/kg, time 6.0 day
[27] = system: Mus musculus; test: Anti-inflammatory activity against amyloid beta (1 to 42)-induced alzheimer's disease mouse model assessed as decrease in TNF-alpha content in hippocampus at 8 to 32 mg/kg and measured on day 6; format: functional, organism-based; details: dose 8-32 mg/kg, time 6.0 day
[28] = target: T3, MAO-A (Homo sapiens, UniProt P21397); test: Inhibition of human recombinant MAO-A at 10 uM
T3 sequence (P21397 whole entry): T1 sequence (P21397 whole entry)

For CCCCCCCC1OC(=O)c2cc(N3N=C(c4cc(Cl)ccc4O)CC3=O)ccc21 (stereo not drawn), the IC50 [1] was > 10000 nM, the IC50 [2] was 410 nM and the Ratio [3] was 1.16 equiv. The Activity [4] was “Active”, the Activity [5] was “Active” and the Activity [6] was “Active”. For the same compound, the inhibition [7] was “Active”, the Activity [8] was “Active” and the Activity [9] was 82.4%. For the same compound, the inhibition [10] was “Active”, the Activity [11] was “Active” and the Activity [12] was “Active”. The Activity [13] was “Non-Toxic”, the viability at 2.5 µM [14] was 73.4% and the viability at 10 µM [15] was 77.7%. The Activity [16] was “Active”, the inhibition at 2.5 µM [17] was 37.9% and the inhibition at 10 µM [18] was 71.6%. For the same compound, the half-life [19] was 1.15 h, the Cmax [20] was 1540 ng/mL and the half-life [21] was 2.07 h. For the same compound, the Tmax [22] was 1 h, the Cmax [23] was 923 ng/g and the Kp [24] was 0.69. The Activity [25] was “Active”, the Activity [26] was “Dose-Dependent Effect” and the Activity [27] was “Active”. The inhibition at 10 µM [28] was 32.6%.
